Patent US20070027130A1, “Tricyclic 6-alkylidene-penem beta-lactamase inhibitors and beta-lactam antibiotic combination: a broad spectrum antibiotic” (priority 2005, published 2007)
Values after ≈ are worked out from the molar mass of the structure shown.

Columns and labels:
Assay in all cases: MIC microbroth dilution
Type in all cases: cell-based
[1] = tested on: E. cloacae GC 1475 (P99); conditions: Enterobacter cloacae, β-lactamase class C, MHBII, 35° C. 18 hr, read-out: Minimal Inhibitory Concentration
Description: (§1) The in vitro activities of the antibiotics were determined by the microbroth dilution method as recommended by the National Committee for Clinical Laboratory Standards (NCCLS). (NCCLS. 2000. Methods for Dilution Antimicrobial Susceptibility Tests for Bacteria That Grow Aerobically; Approved Standards: M7-A5, vol. 19. National Committee for Clinical Laboratory Standards, Villanova, Pa.). Mueller-Hinton II broth (MHBII) (BBL Cockeysville, Md.), was used for the testing procedure. […]. The plates were incubated for 18-22 hours at 35 C. in ambient air.

[2] = tested on: E. cloacae GC 1712 AmpC-inducible; conditions: Enterobacter cloacae, β-lactamase class C, MHBII, 35° C. 18 hr, read-out: Minimal Inhibitory Concentration
Description: as §1

[3] = tested on: E. cloacae GC 7052 SHV-5, Amp C inducable; conditions: Enterobacter cloacae, β-lactamase class A (ESBL), MHBII, 35° C. 18 hr, read-out: Minimal Inhibitory Concentration
Description: as §1

[4] = tested on: E. cloacae PT 1494 Inducible AmpC; conditions: Enterobacter cloacae, β-lactamase class C, MHBII, 35° C. 18 hr, read-out: Minimal Inhibitory Concentration
Description: as §1

[5] = tested on: E. coli ATCC 25922 (none); conditions: Escherichia coli, ATCC25922, β-lactamase class none, MHBII, 35° C. 18 hr, read-out: Minimal Inhibitory Concentration
Description: as §1

[6] = tested on: E. coli GC 1499 (TEM-4 + TEM-1); conditions: Escherichia coli, β-lactamase class A, A (ESBL), MHBII, 35° C. 18 hr, read-out: Minimal Inhibitory Concentration
Description: as §1

[7] = tested on: E. coli GC 1684 (TEM-10); conditions: Escherichia coli, β-lactamase class A (ESBL), MHBII, 35° C. 18 hr, read-out: Minimal Inhibitory Concentration
Description: as §1

[8] = tested on: E. coli GC 2009 (TEM-10); conditions: Escherichia coli, 18 h, read-out: Minimal Inhibitory Concentration
Description: as §1

[9] = tested on: E. coli GC 2017 (TEM-10 + pl 6.3; 8.1); conditions: Escherichia coli, β-lactamase class A (ESBL), MHBII, 35° C. 18 hr, read-out: Minimal Inhibitory Concentration
Description: as §1

[10] = tested on: E. coli GC 2021 (TEM-10 + pl 6.3); conditions: Escherichia coli, 18 h, read-out: Minimal Inhibitory Concentration
Description: as §1

[11] = tested on: E. coli GC 6197 (TEM-1 + SHV-7 + CMY-2); conditions: Escherichia coli, β-lactamase class A, A (ESBL), C, MHBII, 35° C. 18 hr, read-out: Minimal Inhibitory Concentration
Description: as §1

[12] = tested on: E. coli GC 6539 CMY-2; conditions: Escherichia coli, GC6539CMY2, β-lactamase class C, MHBII, 35° C. 18 hr, read-out: Minimal Inhibitory Concentration
Description: as §1

[13] = tested on: E. coli LSU 80-8 GC 6265 TEM-1; conditions: Escherichia coli, read-out: MIC* (minimum inhibitory concentration)
Description: as §1

[14] = tested on: K. pn GC 1554 (TEM-1 + TEM-26 + SHV-1); conditions: Klebsiella pneumoniae, β-lactamase class A, A (ESBL), MHBII, 35° C. 18 hr, read-out: Minimal Inhibitory Concentration
Description: as §1

[15] = tested on: K. pn GC 1830 (SHV-2); conditions: Klebsiella pneumoniae, β-lactamase class A (ESBL), MHBII, 35° C. 18 hr, read-out: Minimal Inhibitory Concentration
Description: as §1

[16] = tested on: K. pn GC 1832 (SHV-4); conditions: Klebsiella pneumoniae, β-lactamase class A (ESBL), MHBII, 35° C. 18 hr, read-out: Minimal Inhibitory Concentration
Description: as §1

[17] = tested on: K. pn GC 3057 (CAZ-R; P/T-R); conditions: Klebsiella pneumoniae, β-lactamase class A, A (ESBL), MHBII, 35° C. 18 hr, read-out: Minimal Inhibitory Concentration
Description: as §1

[18] = tested on: K. pneumoniae GC 2825 Act 1 + 3 additional; conditions: Klebsiella pneumoniae, β-lactamase class A, A (ESBL), C, MHBII, 35° C. 18 hr, read-out: Minimal Inhibitory Concentration
Description: as §1

[19] = tested on: K. pneumoniae GC 7632 TEM-1 KPC-2, SHV-7, SHV-12; conditions: Klebsiella pneumoniae, β-lactamase class A, A (Cb'ase), A (ESBL), MHBII, 35° C. 18 hr, read-out: Minimal Inhibitory Concentration
Description: as §1

[20] = tested on: P. aeruginosa GC 3153 Inducible AmpC; conditions: Pseudomonas aeruginosa, β-lactamase class C, MHBII, 35° C. 18 hr, read-out: Minimal Inhibitory Concentration
Description: as §1

[21] = tested on: P. aeruginosa PT 9025 PTZ-R; conditions: Pseudomonas aeruginosa, PT9025PTZR, 18 h, read-out: Minimal Inhibitory Concentration
Description: as §1

[22] = tested on: P. aeruginosa PT 9236 PTZ-R; conditions: Pseudomonas aeruginosa, PT9236PTZR; P. aeruginosa PT 9236, piperacillin-tazobactam-resistant; MHBII, 35° C. 18 hr; read-out: Minimal Inhibitory Concentration
Description: as §1

[23] = tested on: S. maltophilia GC 1712(L1); conditions: Stenotrophomonas maltophilia, β-lactamase class B, MHBII, 35° C. 18 hr, read-out: Minimal Inhibitory Concentration
Description: as §1

[24] = tested on: S. marcescens GC 1781 (Sme-1 + AmpC); conditions: Serratia marcescens, β-lactamase class A (Cb'ase), C, MHBII, 35° C. 18 hr, read-out: Minimal Inhibitory Concentration
Description: as §1

[25] = tested on: S. marcescens PT 696 Inducible AmpC; conditions: Serratia marcescens, β-lactamase class C, MHBII, 35° C. 18 hr, read-out: Minimal Inhibitory Concentration
Description: as §1

CO/N=C(\C(=O)N[C@@H]1C(=O)N2C(C(=O)[O-])=C(C[N+]3(C)CCCC3)CS[C@H]12)c1csc(N)n1 [Cefepime]
MIC [1]: 1 µg/mL (≈ 2.08 µM) | MIC [2]: 0.25 µg/mL (≈ 0.52 µM) | MIC [3]: 8 µg/mL (≈ 16.6 µM) | MIC [4]: 0.25 µg/mL (≈ 0.52 µM) | MIC [5]: 0.03 µg/mL (≈ 0.0624 µM) | MIC [6]: > 16 µg/mL | MIC [7]: > 16 µg/mL | MIC [8]: > 16 µg/mL | MIC [9]: 16 µg/mL (≈ 33.3 µM) | MIC [10]: 8 µg/mL (≈ 16.6 µM) | MIC [11]: > 16 µg/mL | MIC [12]: 2 µg/mL (≈ 4.16 µM) | MIC [13]: 0.06 µg/mL (≈ 0.125 µM) | MIC [14]: 8 µg/mL (≈ 16.6 µM) | MIC [15]: 2 µg/mL (≈ 4.16 µM) | MIC [16]: 2 µg/mL (≈ 4.16 µM) | MIC [17]: 16 µg/mL (≈ 33.3 µM) | MIC [18]: 2 µg/mL (≈ 4.16 µM) | MIC [19]: > 16 µg/mL | MIC [20]: 16 µg/mL (≈ 33.3 µM) | MIC [21]: > 16 µg/mL | MIC [22]: > 16 µg/mL | MIC [23]: > 16 µg/mL | MIC [24]: 0.06 µg/mL (≈ 0.125 µM) | MIC [25]: 0.5 µg/mL (≈ 1.04 µM)
